From US9113629B2, “4-amino-6-(4-substituted-phenyl)-picolinates and 6-amino-2-(4-substituted-phenyl)-pyrimidine-4-carboxylates and their use as herbicides” (DOW AGROSCIENCES LLC, priority 2013, dated 2015)
Where two headings read alike, the source gives them in different places.

Assays:
[1] = test system: Key Broadleaf Weed and Crop Species; assay: Post-emergent Test II herbicidal activity (Table 5); assay type: in vivo; details: post-emergence, 336 h, 14 days after application; for pest or weed control at 70 g/ha: application rate 70 g ai/ha; for pest or weed control at 140 g/ha: application rate 140 g ai/ha
Procedure, shortened: (§1)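 Greenhouse post-emergent assay: seedlings (first/second true leaf) in Metro-Mix 360 were sprayed at 187 L/ha at a top rate plus twofold dilutions down to 1/16×; solvent-blank controls were included. Percent visual injury was read at 14 d.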

[2] = test system: Key Grass and Sedge Weeds as well as Grass Crops; assay: Post-emergent Test II herbicidal activity (Table 6); assay type: in vivo; details: post-emergence, 336 h; for pest or weed control at 70 g/ha: 70 g ai/ha; for pest or weed control at 140 g/ha: 140 g ai/ha
Procedure, shortened: as §1

[3] = ABUTH: velvetleaf (Abutilon theophrasti), read-out: Visual Growth Reduction (%) 14 Days After Application, ABUTH
[4] = AMARE: redroot pigweed (Amaranthus retroflexus), read-out: Visual Growth Reduction (%) 14 Days After Application, AMARE
[5] = BRSNN: oilseed-rape, canola (Brassica napus), read-out: Visual Growth Reduction (%) 14 Days After Application, BRSNN
[6] = CHEAL: lambsquarters (Chenopodium album), read-out: Visual Growth Reduction (%) 14 Days After Application, CHEAL
[7] = EPHHL: wild poinsettia (Euphorbia heterophylla), read-out: Visual Growth Reduction (%) 14 Days After Application, EPHHL
[8] = HELAN: sunflower (Helianthus annuus), read-out: Visual Growth Reduction (%) 14 Days After Application, HELAN
[9] = VIOTR: wild pansy (Viola tricolor), read-out: Visual Growth Reduction (%) 14 Days After Application, VIOTR
[10] = CYPES: yellow nutsedge (Cyperus esculentus), read-out: Visual Growth Reduction (%) 14 Days After Application, CYPES
[11] = DIGSA: crabgrass (Digitaria sanguinalis), read-out: Visual Growth Reduction (%) 14 Days After Application, DIGSA
[12] = ECHCG: barnyardgrass (Echinochloa crus-galli), read-out: Visual Growth Reduction (%) 14 Days After Application, ECHCG
[13] = ORYSA: rice (Oryza sativa), crop, read-out: Visual Growth Reduction (%) 14 Days After Application, ORYSA
[14] = SETFA: giant foxtail (Setaria faberi), read-out: Visual Growth Reduction (%) 14 Days After Application, SETFA
[15] = SORVU: grain sorghum (Sorghum vulgare), read-out: Visual Growth Reduction (%) 14 Days After Application, SORVU
[16] = TRZSS (wheat, Triticum aestivum), crop, read-out: Visual Growth Reduction (%) 14 Days After Application, TRZSS
[17] = ZEAMX: maize, corn (Zea mays), crop, read-out: Visual Growth Reduction (%) 14 Days After Application, ZEAMX

## COC(=O)c1nc(-c2ccc(OC(F)F)cc2)c(F)c(N)c1Cl [Compound 85]
[1]; [3]
  pest or weed control at 70 g/ha: 95 to 100%
  pest or weed control at 140 g/ha: 95 to 100%
[1]; [4]
  pest or weed control at 70 g/ha: 95 to 100%
  pest or weed control at 140 g/ha: 95 to 100%
[1]; [5]
  pest or weed control at 70 g/ha: 45 to 59%
  pest or weed control at 140 g/ha: 60 to 74%
[1]; [6]
  pest or weed control at 70 g/ha: 85 to 94%
  pest or weed control at 140 g/ha: 95 to 100%
[1]; [7]
  pest or weed control at 70 g/ha: 95 to 100%
  pest or weed control at 140 g/ha: 95 to 100%
[1]; [8]
  pest or weed control at 70 g/ha: 85 to 94%
  pest or weed control at 140 g/ha: 95 to 100%
[1]; [9]
  pest or weed control at 70 g/ha: 0 to 29%
  pest or weed control at 140 g/ha: 0 to 29%
[2]; [10]
  pest or weed control at 70 g/ha: 85 to 94%
  pest or weed control at 140 g/ha: 85 to 94%
[2]; [11]
  pest or weed control at 70 g/ha: 30 to 44%
  pest or weed control at 140 g/ha: 30 to 44%
[2]; [12]
  pest or weed control at 70 g/ha: 95 to 100%
  pest or weed control at 140 g/ha: 95 to 100%
[2]; [13]
  pest or weed control at 70 g/ha: 0 to 29%
  pest or weed control at 140 g/ha: 0 to 29%
[2]; [14]
  pest or weed control at 70 g/ha: 45 to 59%
  pest or weed control at 140 g/ha: 75 to 84%
[2]; [15]
  pest or weed control at 70 g/ha: 75 to 84%
  pest or weed control at 140 g/ha: 85 to 94%
[2]; [16]
  pest or weed control at 70 g/ha: 30 to 44%
  pest or weed control at 140 g/ha: 30 to 44%
[2]; [17]
  pest or weed control at 70 g/ha: 75 to 84%
  pest or weed control at 140 g/ha: 75 to 84%
